Patent US8653071B2, “α4β2 neuronal nicotinic acetylcholine receptor ligands” (Suven Life Sciences Limited, priority 2009, dated 2014)
Counter-ions that a name gives are not always drawn.

How the values were obtained:
[1] = target: Nicotinic Acetylcholine α4β2 Receptor (UniProt P09483+P12390); test: Binding assay for human or rat nicotinic acetylcholine α4β2 receptor ([3H]Cytisine displacement); conditions: [3H]Cytisine 2.5 nM; rat brain frontal cortex or recombinant human receptor in CHO cells (not specified which); read-out: Ki
Protocol: Binding Assay for Human or Rat Nicotinic Acetylcholine α4β2 Receptor
• Receptor source: Rat brain frontal cortex or recombinant human cDNA expressed in CHO cells • Radioligand: [^3H]Cytisine 15-40 Ci/mmole • Final ligand concentration—[2.5 nM] • Non-specific determinant: Epibatidine—[0.1 μM] • Reference compound: Epibatidine • Positive control: Epibatidine Incubation Conditions:
Increasing concentrations of test compounds or standard were incubated with membrane receptors and radioligand in 120 mM NaCl, 2.5 mM KCl, 1 mM CaCl2, 1 mM MgCl2 and 50 mM TRIS-HCl (pH 7.4) for 60 minutes at room temperature. The reaction was terminated by rapid vacuum filtration onto the glass fiber filters. Radioactivity trapped onto the filters was determined and compared to the control values in order to ascertain any interactions of the test compound(s) with either cloned human or rat receptor binding site.
Literature Reference: Bunnelle W. H., Daanen J. F., Ryther K. B., Schrimpf M. R., Dart M. J., Gelain A., Meyer M. D., Frost J. M., Anderson D. J., Buckley M., Curzon P., Cao Y-J., Puttfarcken P., Searle X., Ji J., Putman C. B., Surowy C., Toma L. and Barlocco D. Structure-Activity Studies and Analgesic Efficacy of N-(3-Pyridinyl)-Bridged Bicyclic Diamines, Exceptionally Potent Agonists at Nicotinic Acetylcholine Receptors. J. Med. Chem. 2007, 50, […].

[2] = Rodent pharmacokinetic study; format: in vivo; conditions: Wistar, plasma, Wister rat/Male; for bioavailability: 5 mg/kg Per-Oral vs 5 mg/kg Intravenous; for AUC(0-t) / Cmax / Tmax / half-life: 5 mg/kg
Protocol: Rodent Pharmacokinetic Study
Three to five animals were housed in each cage. Animals were kept fasted over night and maintained on a 12 hours light/dark cycle. Three rats were dosed NCE orally (15 or 5 mg/kg) and intravenously (5 mg/kg) on day 0 and day 2
At each time point blood was collected by jugular vein. Plasma was stored frozen at −20° C. until analysis. The concentrations of the NCE compound in plasma were determined using LC-MS/MS method. Schedule time points: Pre dose 0.25, 0.5, 1, 1.5, 2, 3, 4, 6, 8, 10, 12 and 24 hours after dosing (n=3).
Pharmacokinetic parameters Cmax, Tmax, AUCt, T1/2 and Bioavailability were calculated by non-compartmental model using software WinNonlin version 5.0.1.

Male Wister rats = test: Object recognition task model; format: in vivo, rat; conditions: p.o.; for Exploration time mean ± S.E.M, Familiar object / Exploration time mean ± S.E.M, Novel object: choice trial
Protocol: Object Recognition Task Model
The cognition-enhancing properties of compounds of this invention were estimated using a model of animal cognition: the object recognition task model.
Male Wister rats (230-280 grams) obtained from N. I. N. (National Institute of Nutrition, Hyderabad, India) was used as experimental animals. Four animals were housed in each cage. […] Also the rats were habituated to individual arenas for 1 hour in the absence of any objects.
One group of 12 rats received vehicle (1 mL/Kg) orally and another set of animals received compound of the formula (I) either orally or i.p., before one hour of the familiar (T1) and choice trial (T2).
The experiment was carried out in a 50×50×50 cm open field made up of acrylic. In the familiarization phase, (T1), the rats were placed individually in the open field for 3 minutes, in which two identical objects (plastic bottles, 12.5 cm height×5.5 cm diameter) covered in yellow masking tape alone (a1 and a2) were positioned in two adjacent corners, 10 cm. from the walls. After 24 hours of the (T1) trial for long-term memory test, the same rats were placed in the same arena as they were placed in T1 trial. Choice phase (T2) rats were allowed to explore the open field for 3 minutes in presence of one familiar object (a3) and one novel object (b) (Amber color glass bottle, 12 cm high and 5 cm in diameter). Familiar objects presented similar textures, colors and sizes. During the T1 and T2 trial, explorations of each object (defined as sniffing, licking, chewing or having moving vibrissae whilst directing the nose towards the object at a distance of less than 1 cm) were recorded separately by stopwatch. Sitting on an object was not regarded as exploratory activity, however, it was rarely observed.
T1 is the total time spent exploring the familiar objects (a1+a2).
T2 is the total time spent exploring the familiar object and novel object (a3+b).
The object recognition test was performed as described by Ennaceur, A., Delacour, J., 1988, A new one-trial test for neurobiological studies of memory in rats—Behavioural data, Behav. Brain Res., 31, 47-59.

Structure (SMILES) | Ki [1] [nM] | other results
NCC1CC2CC2N1C(=O)c1cccnc1 (stereo not drawn) [Example 38, (3-Aminomethyl-2-aza bicyclo[3.1.0]hex-2-yl) pyridin-3-yl methanone tartarate] | 45 | 
NCC1CC2CC2N1c1ccc(C(F)(F)F)nc1 (stereo not drawn) [Example 24, N-(2-(2-trifluoromethylpyridin-5-yl)-2-azabicyclo[3.1.0]hex-3-ylmethyl) amine fumarate] | 681 | 
NCC1CC2CC2N1c1cncnc1.O=C(O)/C=C/C(=O)O (stereo not drawn) [Example 22, N-(2-(pyrimidin-5-yl)-2-azabicyclo[3.1.0]hex-3-ylmethyl) amine fumarate] | 58.1 | bioavailability [2]: 89 ± 9%; AUC(0-t) ([2]; Intravenous): 2250 ± 228 ng·h/mL; Cmax ([2]; Intravenous): 1380 ± 156 ng/mL; Tmax ([2]; Intravenous): 15 min; half-life ([2]; Intravenous): 80.4 ± 4.2 min; AUC(0-t) ([2]; Per-Oral): 2020 ± 377 ng·h/mL; Cmax ([2]; Per-Oral): 1100 ± 211 ng/mL; Tmax ([2]; Per-Oral): 4.8 min; half-life ([2]; Per-Oral): 97.8 ± 6.6 min
Cc1cncc(N2C(CN)CC3CC32)c1 (stereo not drawn) [Example 26, N-(2-(3-methylpyridin-5-yl)-2-azabicyclo[3.1.0]hex-3-ylmethyl) amine fumarate] | 5.7 | 
NCC1CC2CC2N1C(=O)c1ccco1.O=C(O)C(O)C(O)C(=O)O (stereo not drawn) [Example 35, (3-Aminomethyl-2-aza bicyclo[3.1.0]hex-2-yl) furan-2-yl methanone tartrate] | 38.7 | Inference (Male Wister rats; 0.3 mg/kg): Active; Exploration time mean ± S.E.M, Familiar object (Male Wister rats; 0.3 mg/kg): 5.30 ± 1.05 s; Exploration time mean ± S.E.M, Novel object (Male Wister rats; 0.3 mg/kg): 14.90 ± 7.74 s; bioavailability [2]: 92 ± 8%; AUC(0-t) ([2]; Intravenous): 1420 ± 71 ng·h/mL; Cmax ([2]; Intravenous): 1780 ± 56 ng/mL; Tmax ([2]; Intravenous): 4.8 min; half-life ([2]; Intravenous): 67.8 ± 9 min; AUC(0-t) ([2]; Per-Oral): 1310 ± 146 ng·h/mL; Cmax ([2]; Per-Oral): 998 ± 175 ng/mL; Tmax ([2]; Per-Oral): 19.8 ± 8.4 min; half-life ([2]; Per-Oral): 89.4 ± 15.6 min
CNCC1CC2CC2N1c1cncc(OC)c1 (stereo not drawn) [Example 14, N-[2-(5-Methoxypyridin-3-yl)-2-azabicyclo[3.1.0]hex-3-ylmethyl]methylamine fumarate] | 179 | 
CNCC1CC2CC2N1c1cncc(OC(C)C)c1 (stereo not drawn) [Example 15, N-[2-(5-Isopropoxypyridin-3-yl)-2-azabicyclo[3.1.0]hex-3-ylmethyl]methylamine] | 383 | 
NCC1CC2CC2N1c1cncc(C(F)(F)F)c1 (stereo not drawn) [Example 28, N-(2-(3-trifluoromethylpyridin-5-yl)-2-azabicyclo[3.1.0]hex-3-ylmethyl) amine fumarate] | 140 | 
CNCC1CC2CC2N1c1nccnc1O (stereo not drawn) [Example 20, N-[2-(3-Hydroxypyrazin-2-yl)-2-azabicyclo[3.1.0]hex-3-ylmethyl] methylamine] | 13 | 
NCC1CC2CC2N1C(=O)c1ccncc1 (stereo not drawn) [Example 39, (3-Aminomethyl-2-aza-bicyclo[3.1.0]hex-2-yl) pyridin-4-yl methanone tartarate] | 109 | 
NCC1CC2CC2N1c1cncc(Sc2ccccc2)c1 (stereo not drawn) [Example 16, [2-(5-Phenylsulfanylpyridin-3-yl)-2-azabicyclo[3.1.0]hex-3-yl]methylamine fumarate] | 451 | 
CNCC1CC2CC2N1C(=O)c1ccco1 (single isomer, unassigned) [Example 3, Furan-2-yl-(3-methylaminomethyl-2-azabicyclo[3.1.0]hex-2-yl)methanone tartarate] | 41.7 | 
NCC1CC2CC2N1C(=O)c1cncc(Br)c1 (stereo not drawn) [Example 36, (3-Aminomethyl-2-azabicyclo[3.1.0]hex-2-yl) (5-bromo pyridin-3-yl) methanone tartrate] | 17.8 | 
CCNCC1CC2CC2N1c1cncc(Br)c1 (stereo not drawn) [Example 5, N-[2-(5-Bromopyridin-3-yl)-2-azabicyclo[3.1.0]hex-3-ylmethyl]ethylamine tartarate] | 700 | 
CNCC1CC2CC2N1C(=O)c1cc2ccccc2o1 (stereo not drawn) [Example 32, Benzofuran-2-yl-(3-methylaminomethyl-2-azabicyclo[3.1.0]hex-2-yl)methanone tartrate] | 38.3 | 
CNCC1CC2CC2N1c1cncc(C(F)(F)F)c1 (stereo not drawn) [Example 30, N-(2-(3-trifluoromethylpyridin-5-yl)-2-azabicyclo[3.1.0]hex-3-ylmethyl) methylamine fumarate] | 247 | 
NCC1CC2CC2N1c1ccc(Cl)nc1 (stereo not drawn) [Example 25, N-(2-(2-chloropyridin-5-yl)-2-azabicyclo[3.1.0]hex-3-ylmethyl) amine fumarate] | 6.9 | 
CNCC1CC2CC2N1C(=O)c1cc2cccc(Br)c2o1 (stereo not drawn) [Example 33, (7-Bromo benzofuran-2-yl)-(3-methylaminomethyl-2-azabicyclo[3.1.0]hex-2-yl) methanone tartrate] | 3000 | 
CNCC1CC2CC2N1c1cnc2ccccc2c1 (stereo not drawn) [Example 31, N-(2-(quinolin-3-yl)-2-azabicyclo[3.1.0]hex-3-ylmethyl) methylamine fumarate] | 1650 | 
CNCC1CC2CC2N1c1cncc(Cl)c1.O=C(O)/C=C/C(=O)O (stereo not drawn) [Example 12, N-[2-(5-Chloropyridin-3-yl)-2-azabicyclo[3.1.0]hex-3-ylmethyl]methylamine fumarate] | 77.3 | Inference (Male Wister rats; 1 mg/kg): Active; Exploration time mean ± S.E.M, Familiar object (Male Wister rats; 1 mg/kg): 4.651 ± 0.619 s; Exploration time mean ± S.E.M, Novel object (Male Wister rats; 1 mg/kg): 16.70 ± 2.136 s
NCC1CC2CC2N1C(=O)c1ccccn1 (stereo not drawn) [Example 37, (3-Aminomethyl-2-azabicyclo[3.1.0]hex-2-yl) pyridin-2-yl methanone tartrate] | 11.6 | 
NCC1CC2CC2N1C(=O)c1cc2ccccc2[nH]1 (stereo not drawn) [Example 34, (3-Aminomethyl-2-azabicyclo[3.1.0]hex-2-yl)-(1H-indol-2-yl)-methanone] | 55 | 
CNCC1CC2CC2N1c1cncc(C)c1 (stereo not drawn) [Example 27, N-(2-(3-methylpyridin-5-yl)-2-azabicyclo[3.1.0]hex-3-ylmethyl)methyl amine bistartarate] | 253 | 
NCC1CC2CC2N1c1cnc2ccccc2c1 (stereo not drawn) [Example 29, N-(2-(quinolin-3-yl)-2-azabicyclo[3.1.0]hex-3-ylmethyl) amine fumarate] | 135 | 
